From patent publication EP1038880B1, “Androstanes and pregnanes for allosteric modulation of GABA receptor” (priority 1994, dated 1995)

Columns and labels:
GR complex = assay: [35S]TBPS binding assay (inhibition of [35S]TBPS binding, cerebral cortex P2 homogenate); set-up: species or system rat; settings: for IC50: 2 nM [35S]TBPS, rat cerebral cortex P2 homogenate; for IMAX: maximum inhibition of [35S]TBPS binding
Method in brief: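 Rat (male Sprague-Dawley) cortical P2 homogenate (0.5 mg protein) in 50 mM Na/K phosphate pH 7.4, 200 mM NaCl, incubated with 2 nM [35S]TBPS plus steroid test compounds (DMSO) in presence of GABA plus (+)bicuculline, 25°C, 90 min. Filtration, scintillation counting; nonspecific binding defined with […].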

[1] = target: T1, Hippocampal Mineralocorticoid Receptors (Rattus norvegicus, UniProt P22199); assay: Inhibition of 3H-aldosterone binding, brain cytosol; set-up: species or system rats; settings: competitor 10^-6M; 3 nM 3H-aldosterone, RU28362 0.5 µM
T1 construct: To isolate the mineralocorticoid receptor, brain cytosol fractions were prepared; from tissue; host or cells: rat brain (hippocampal) cytosol
T1 sequence (P22199 1-981): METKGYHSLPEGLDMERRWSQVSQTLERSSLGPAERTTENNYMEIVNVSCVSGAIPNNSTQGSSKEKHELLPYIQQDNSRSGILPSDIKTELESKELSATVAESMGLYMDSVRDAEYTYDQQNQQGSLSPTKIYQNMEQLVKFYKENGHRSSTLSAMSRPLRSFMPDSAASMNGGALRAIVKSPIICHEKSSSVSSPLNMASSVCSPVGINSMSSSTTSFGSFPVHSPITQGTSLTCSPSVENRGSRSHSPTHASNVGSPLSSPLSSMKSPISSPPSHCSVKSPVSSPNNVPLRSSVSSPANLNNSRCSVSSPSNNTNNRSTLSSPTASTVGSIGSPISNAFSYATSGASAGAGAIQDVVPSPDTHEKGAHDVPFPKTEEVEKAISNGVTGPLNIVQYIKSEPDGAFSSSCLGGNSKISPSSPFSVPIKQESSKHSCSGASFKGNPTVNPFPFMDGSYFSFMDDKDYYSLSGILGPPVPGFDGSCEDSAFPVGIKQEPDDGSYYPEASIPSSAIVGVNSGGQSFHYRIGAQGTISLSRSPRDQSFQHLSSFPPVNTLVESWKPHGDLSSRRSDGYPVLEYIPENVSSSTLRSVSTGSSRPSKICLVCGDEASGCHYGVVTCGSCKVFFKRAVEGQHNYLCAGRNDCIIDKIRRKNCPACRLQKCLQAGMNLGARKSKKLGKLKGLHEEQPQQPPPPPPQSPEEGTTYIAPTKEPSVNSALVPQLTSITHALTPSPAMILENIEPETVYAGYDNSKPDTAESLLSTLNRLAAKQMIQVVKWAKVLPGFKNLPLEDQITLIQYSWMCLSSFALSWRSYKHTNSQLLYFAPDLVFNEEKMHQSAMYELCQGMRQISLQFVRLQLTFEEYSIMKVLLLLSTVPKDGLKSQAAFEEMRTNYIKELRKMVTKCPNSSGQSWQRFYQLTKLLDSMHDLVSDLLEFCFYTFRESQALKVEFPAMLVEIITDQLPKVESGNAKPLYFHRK
Description: Various hormonal activities of representative neuroactive steroids were further studied through testing their potential estrogenic, mineralocorticoid and glucocorticoid activities. These activities were analyzed by monitoring the ability of the compounds to inhibit binding of the steroid hormones to their respective hormone receptors.
In Table 3, rats were adrenalectomized 3 days prior to sacrifice. […] Table 2. Inhibition of 3H-Progesterone Binding to the Bovine Uteral Progesterone Receptors
Table 3. Inhibition of 3H-Aldosterone Binding to Hippocampal Mineralocorticoid Receptors

[2] = system: N.I.H. Swiss-Webster mice; assay: Elevated plus-maze; assay type: in vivo; settings: 5 min test, ten minutes after injection (Fig. 9A)
Description: The theoretical basis for the elevated plus-maze test is similar to that of the light/dark transition test. […] The apparatus consists of two open-arms and two enclosed-arms. The elevated plus-maze test allows for two measures of anxiety, the number of entries into the open-arms and the time spent on the open-arms, both expressed as a percentage of the total number of entries and time spent in/on both the open-arms and enclosed-arms.
Male N.LH. Swiss-Webster mice (Harlan, Indianapolis, IN) weighing 15-20 g were housed four per cage in polyethylene cages with sawdust bedding. The colony mom was environmentally controlled (22°C) with a 12^- hr light/dark cycle (0600-1800 hr). Food and water were available ad libitum, except during testing. The experiments were run from 0700-1500 hr and groups were counterbalance for time of day effects. Mice were only administered drug or vehicle once.
The apparatus included two open arms perpendicular to two enclosed arms elevated 50 cm from the floor. Each arm was 50 cm long and the walls of the enclosed arms were 40 cm tall. The maze was made completely of black plexiglass. Incandescent 200 W light bulbs were above each of the open arms to produce a strong contrast between the open arms and the enclosed arms.
Ten minutes after an injection, the N.I.H. Swiss-Webster mice were placed in the center of the plus-maze facing an open arm. During the 5 min test period, the number of entries onto the open arms and the enclosed arms, and the time spent in the open arms and enclosed arms were measured. All four paws had to be within an arm for the dependent variable to be measured. Therefore, the time spent in the center of the maze is not counted, so the total time spent in the open arms and the enclosed arms may not equal 5 min.

[3] = system: N.I.H. Swiss-Webster mice; assay: Light/dark transition test; assay type: in vivo; settings: IP, 10 min test, vs control, Dunnett's t-test (Fig. 8)
Description: Male N.I.H. Swiss-Webster mice (Harlan, Harlan, Indianapolis, IN) weighing 15-20 g were housed four per cage in polyethylene cages with sawdust bedding. The colony room was environmentally controlled (22°C) with a hr light/dark cycle (0600-1800hr). Food and water were available ad libitum, except during testing. The experiments were run from 0700-1500 hr and groups were counterbalanced for time of day effects. Mice were only administered drug or vehicle once.
The apparatus included two 2-compartment automated test chambers (Model RXYZCM16, Omnitech Electronics, Columbus, OH). The open compartment was connected to the enclosed compartment via a 7.5 × 7.5 cm passageway. The open compartment was brightly lit using a 200 W incandescent light bulb. The experimental room was kept dark. Interruptions of the infrared beams in either chamber were automatically recorded by being linked to a computer through a Digiscan Analyzer (Omnitech and the data was analyzed using the Integrated Lab Animal Monitoring System (Omnitech Electronics). N.IH. Swiss-Webster mice were administered vehicle or test drug intraperiotoneally (IP),10 min later they were placed in the center of the lit compartment. The number of transitions between the lit and dark chambers, total activity in the lit chamber and the time spent in the lit chamber were measured during a 10 min test period.

SMILES | IC50 (GR complex) [nM] | IMAX (GR complex) [%] | inhibition at 1 µM [1] [%] | dose producing significant increase in entries into the open-arms [2] [mg/kg] | number of transitions between the dark box and the light box, in words [3]
C[C@]12CC[C@@H](O)C[C@@H]1CC[C@@H]1[C@@H]2CC[C@]2(C)[C@@H](C(=O)CO)CC[C@@H]12 [3α,21-dihydroxy-5α-pregnan-20-one] | 76 | 100 | 76.7 |  | 
CC(=O)[C@H]1CC[C@H]2[C@@H]3CC[C@H]4C[C@H](O)CC[C@]4(C)[C@H]3CC[C@]12C [3α-Hydroxy-5α-pregnan-20-one, 3α-hydroxy-5α-pregnan-20-one] | 37 | 95 |  | 20 | significantly increased
